Test results reported in the supplement of paper PMC10307832.

What was measured:
Assay in all cases: relative viability (nuclei count vs DMSO), 5 days (fraction); higher = more cells survive
Bicalutamide + Olaparib = compound: CC(O)(CS(=O)(=O)c1ccc(F)cc1)C(=O)Nc1ccc(C#N)c(C(F)(F)F)c1 [Bicalutamide] + O=C(c1cc(Cc2n[nH]c(=O)c3ccccc23)ccc1F)N1CCN(C(=O)C2CC2)CC1 [Olaparib] (partner 8 µM)
Procedure, shortened: (§1)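 Lung cancer cell lines in 1536-well plates got either a single drug or a fixed anchor-drug dose together with five library-drug doses (not always all listed) in √10 steps, by pin tool, on the day after seeding. Nuclei were counted after 5 days, and relative viability is the treated-to-vehicle ratio of nuclei counts. Values are medians of duplicate plates.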

[1] = compound: CC(O)(CS(=O)(=O)c1ccc(F)cc1)C(=O)Nc1ccc(C#N)c(C(F)(F)F)c1 [Bicalutamide] + Nc1nc2[nH]cc(CCc3ccc(C(=O)N[C@@H](CCC(=O)O)C(=O)O)cc3)c2c(=O)[nH]1 [Pemetrexed] (partner 0.2 µM)
Procedure, shortened: as §1

[2] = compound: CC(O)(CS(=O)(=O)c1ccc(F)cc1)C(=O)Nc1ccc(C#N)c(C(F)(F)F)c1 [Bicalutamide] + C[C@@H](Oc1cc(-c2cnn(C3CCNCC3)c2)cnc1N)c1c(Cl)ccc(F)c1Cl [Crizotinib] (partner 1 µM)
Procedure, shortened: as §1

[3] = compound: C(C(=O)C(=O)O)Br [Bromopyruvate] + C[C@]1(O)C[C@@H](c2nc(-c3ccc4ccc(-c5ccccc5)nc4c3)c3c(N)nccn32)C1 [Linsitinib] (partner 1 µM)
Procedure, shortened: as §1

| Cell Line | relative viability (Bicalutamide + Olaparib; first compound 0.08 µM) | relative viability (Bicalutamide + Olaparib; first compound 0.253 µM) | relative viability (Bicalutamide + Olaparib; first compound 0.8 µM) | relative viability (Bicalutamide + Olaparib; first compound 2.53 µM) | relative viability ([1]; first compound 0.08 µM) | relative viability ([1]; first compound 0.253 µM) | relative viability ([1]; first compound 0.8 µM) | relative viability ([1]; first compound 2.53 µM) | relative viability ([2]; first compound 0.08 µM) | relative viability ([2]; first compound 0.253 µM) | relative viability ([2]; first compound 0.8 µM) | relative viability ([2]; first compound 2.53 µM) | relative viability ([3]; first compound 10 µM) | relative viability ([3]; first compound 31.62 µM) | relative viability ([3]; first compound 100 µM) | relative viability ([3]; first compound 1 µM) | relative viability ([3]; first compound 3.162 µM) |
| --- | --- | --- | --- | --- | --- | --- | --- | --- | --- | --- | --- | --- | --- | --- | --- | --- | --- |
| LCLC-97TM1 | 0.356 | 0.363 | 0.434 | 0.507 | 0.169 | 0.173 | 0.203 | 0.181 | 0.478 | 0.369 | 0.317 | 0.301 | 0.22 | 0.198 | 0.162 |  |  |
| NCI-H647 | 0.571 | 0.384 | 0.591 | 0.381 | 0.187 | 0.172 | 0.172 | 0.151 | 1.11 | 1.23 | 1.56 | 0.777 | 1.55 | 1.15 | 0.806 | 1.03 | 1.48 |
| NCI-H838 | 0.777 | 0.778 | 0.733 | 0.522 | 0.272 | 0.232 | 0.261 | 0.243 | 0.823 | 0.762 | 0.833 | 0.602 | 1.23 | 1.02 | 1.1 | 0.966 | 1.05 |
| H3255 | 0.564 | 0.558 | 0.554 | 0.551 | 0.584 | 0.536 | 0.62 | 0.571 | 0.963 | 0.845 | 1.05 | 0.719 | 0.997 | 0.967 | 1.1 | 0.945 | 1.02 |
| SK-MES-1 | 0.825 | 0.711 | 0.773 | 0.561 | 1.04 | 0.867 | 0.981 | 0.832 | 1.03 | 0.902 | 1.02 | 1.01 | 1.08 | 0.941 | 1.06 | 1.07 | 1.05 |
| NCI-H1437 | 0.613 | 0.614 | 0.63 | 0.613 | 0.312 | 0.303 | 0.349 | 0.316 | 0.899 | 0.893 | 0.895 | 0.923 | 1.22 | 1.02 | 1.17 | 1.02 | 1.03 |
| LU99A | 0.268 | 0.225 | 0.259 | 0.248 | 0.19 | 0.163 | 0.206 | 0.183 | 0.65 | 0.451 | 0.602 | 0.362 | 0.552 | 0.614 | 0.511 | 0.567 | 0.563 |
| HCC-827 | 0.63 | 0.548 | 0.704 | 0.6 | 0.261 | 0.218 | 0.289 | 0.306 | 0.922 | 0.911 | 0.942 | 0.952 | 0.926 | 0.962 | 0.981 | 1.01 | 0.932 |
| LK-2 | 0.629 | 0.524 | 1.12 | 0.621 | 0.233 | 0.273 | 0.379 | 0.303 | 0.252 | 0.209 | 0.2 | 0.225 | 0.541 | 0.509 | 0.524 | 0.474 | 0.674 |
